Data: article PMC9402538, “Rational design of a sensitivity-enhanced tracer for discovering efficient APC–Asef inhibitors” (Nature Communications, 2022)
pIC50: −log10 of the molar value. Values joined by “and” are separate entries in the source; they are usually repeats but may differ in a detail not shown here. Equal values may be shown once. Read-outs that look alike come from different tables or passages of the source. Where a SMILES comes first, the peptide text is derived from it. [ ]: non-standard residue; d: D form. The star is where a group is joined. Phe(4-tBu) = CC(C)(C)c1ccc(C[C@H](N)C(=O)O)cc1; Bpa = N[C@@H](Cc1ccc(C(=O)c2ccccc2)cc1)C(=O)O; Benzoyl(4-OMe) = COc1ccc(C(=O)*)cc1

Molecular target: T1, APC (303–739) (Homo sapiens, UniProt P25054)
T1 sequence (P25054 303-739): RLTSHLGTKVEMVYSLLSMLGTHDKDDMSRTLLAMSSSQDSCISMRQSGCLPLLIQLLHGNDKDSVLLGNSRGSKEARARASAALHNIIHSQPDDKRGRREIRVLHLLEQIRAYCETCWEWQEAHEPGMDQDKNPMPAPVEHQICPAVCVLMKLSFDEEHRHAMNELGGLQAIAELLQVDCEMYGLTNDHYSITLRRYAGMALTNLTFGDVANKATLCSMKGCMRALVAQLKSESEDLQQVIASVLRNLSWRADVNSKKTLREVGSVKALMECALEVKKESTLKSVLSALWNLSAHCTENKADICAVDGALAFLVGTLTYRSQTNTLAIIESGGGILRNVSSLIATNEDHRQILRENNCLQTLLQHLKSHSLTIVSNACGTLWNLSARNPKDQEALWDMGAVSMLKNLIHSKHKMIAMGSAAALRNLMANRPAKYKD
Assay: FP competitive assay using tracer 7
Format: binding
Procedure: FITC-labeled tracer peptides were obtained from Changzhou Kanglong Biotech Ltd. (Changzhou, Jiangsu, China). […]. The FP signal changes upon tracer binding were measured after 1.5 h of incubation using a Synergy neo microplate reader (BioTek Instruments, Inc.) and plotted against the protein concentration. The corresponding EC50 values were generated by fitting the curves with a nonlinear regression model. […]. To make a working solution, APC (303–739) was diluted in FP buffer (50 mM HEPES, pH 7.5, 300 mM NaCl, 1 mM EDTA, 1 mM DTT). The diluted APC protein (91 μL) was combined with a serial dilution of peptides (4 μL) and incubated at room temperature for 1 h, followed by the addition of 5 μL of 400 nM tracer 7. The FP signals were measured after 1.5 h of incubation at room temperature using a Synergy neo microplate reader. Three controls were included on each plate, i.e., blank (without protein and tracer), 100% inhibition (free tracer only), and 0% inhibition (protein/tracer complex only) controls. All experiments were performed in triplicate. The IC50 values of peptides were calculated by nonlinear regression analysis using GraphPad Prism 7.0 software.

[1] = Conc. 0.0049 μM, individual repeats, Fig3b
[2] = Conc. 0.0098 μM, individual repeats, Fig3b
[3] = Conc. 0.0195 μM, individual repeats, Fig3b
[4] = Conc. 0.0391 μM, individual repeats, Fig3b
[5] = Conc. 0.0781 μM, individual repeats, Fig3b
[6] = Conc. 0.1563 μM, individual repeats, Fig3b
[7] = Conc. 0.3125 μM, individual repeats, Fig3b
[8] = Conc. 0.625 μM, individual repeats, Fig3b
[9] = Conc. 2.5 μM, individual repeats, Fig3b
[10] = Conc. 5 μM, individual repeats, Fig3b
[11] = Conc. 10 μM, individual repeats, Fig3b
[12] = Conc. 20 μM, individual repeats, Fig3b

COc1ccc(C(=O)N[C@@H](C)C(=O)NCC(=O)N[C@@H](CCC(=O)O)C(=O)N[C@@H](CO)C(=O)N[C@@H](CC(C)C)C(=O)N[C@@H](Cc2ccc(O)cc2)C(=O)N[C@@H](Cc2ccc(C(=O)c3ccccc3)cc2)C(N)=O)cc1 [MAI-521] ({Benzoyl(4-OMe)}-AGESLY[Bpa]-NH2)
inhibition at 0.0015 µM (Conc. 0.0015 μM, individual repeats, Fig3b): 1.5% | %inhibition (Conc. 0.0024 μM, individual repeats, Fig3b): -0.4% and 2.8% | inhibition at 0.0031 µM (Conc. 0.0031 μM, individual repeats, Fig3b): 2% | %inhibition [1]: 2.6% | inhibition at 0.0049 µM [1]: 1.8% | inhibition at 0.006 µM (Conc. 0.006 μM, individual repeats, Fig3b): 3.2% | %inhibition [2]: 10.8% | inhibition at 0.0098 µM [2]: 6.3% | inhibition at 0.012 µM (Conc. 0.012 μM, individual repeats, Fig3b): 9% | %inhibition [3]: 24.3% | inhibition at 0.0195 µM [3]: 16% | inhibition at 0.024 µM (Conc. 0.024 μM, individual repeats, Fig3b): 22.1% | %inhibition [4]: 41% | inhibition at 0.0391 µM [4]: 35.5% | inhibition at 0.049 µM (Conc. 0.049 μM, individual repeats, Fig3b): 39.2% | %inhibition [5]: 60.9% | inhibition at 0.0781 µM [5]: 56.4% | inhibition at 0.098 µM (Conc. 0.098 μM, individual repeats, Fig3b): 74.8% | %inhibition [6]: 75% | inhibition at 0.1563 µM [6]: 74.4% | inhibition at 0.195 µM (Conc. 0.195 μM, individual repeats, Fig3b): 77.9% | %inhibition [7]: 86.3% | inhibition at 0.3125 µM [7]: 86% | inhibition at 0.391 µM (Conc. 0.391 μM, individual repeats, Fig3b): 87.6% | %inhibition [8]: 93.8% | inhibition at 0.625 µM [8]: 92% | inhibition at 0.781 µM (Conc. 0.781 μM, individual repeats, Fig3b): 92.8% | inhibition at 1.25 µM (Conc. 1.25 μM, individual repeats, Fig3b): 95.3% | inhibition at 1.563 µM (Conc. 1.563 μM, individual repeats, Fig3b): 95.7% | %inhibition [9]: 98.9% | inhibition at 2.5 µM [9]: 96.1% | inhibition at 3.125 µM (Conc. 3.125 μM, individual repeats, Fig3b): 97.1% | %inhibition [10]: 100.8% | inhibition at 5 µM [10]: 96.6% | inhibition at 6.25 µM (Conc. 6.25 μM, individual repeats, Fig3b): 98.3% | %inhibition [11]: 101.1% | inhibition at 10 µM [11]: 97.4% | inhibition at 12.5 µM (Conc. 12.5 μM, individual repeats, Fig3b): 97.7% | %inhibition [12]: 101.7% | inhibition at 20 µM [12]: 97% | pIC50 (IC50 Repeat 1, tracer 7): 7.27 | pIC50 (IC50 Repeat 2, tracer 7): 7.27 | pIC50 (IC50 Repeat 3, tracer 7): 7.29 | pIC50 (IC50 mean, tracer 7, mean of three repeats): 7.27 | mean (FP signal, FigS5) (Repeat 1, Conc. 0.0015 μM): 296.3 | mean (FP signal, FigS5) (Repeat 1, Conc. 0.0031 μM): 295 | mean (FP signal, FigS5) (Repeat 1, Conc. 0.006 μM): 292 | mean (FP signal, FigS5) (Repeat 1, Conc. 0.012 μM): 277.7 | mean (FP signal, FigS5) (Repeat 1, Conc. 0.024 μM): 245 | mean (FP signal, FigS5) (Repeat 1, Conc. 0.049 μM): 202.3 | mean (FP signal, FigS5) (Repeat 1, Conc. 0.098 μM): 113.7 | mean (FP signal, FigS5) (Repeat 1, Conc. 0.195 μM): 106 | mean (FP signal, FigS5) (Repeat 1, Conc. 0.391 μM): 82 | mean (FP signal, FigS5) (Repeat 1, Conc. 0.781 μM): 69 | mean (FP signal, FigS5) (Repeat 1, Conc. 1.563 μM): 61.7 | mean (FP signal, FigS5) (Repeat 1, Conc. 3.125 μM): 58.3 | mean (FP signal, FigS5) (Repeat 1, Conc. 6.25 μM): 55.3 | mean (FP signal, FigS5) (Repeat 1, Conc. 12.5 μM): 56.7 | mean (FP signal, FigS5) (Repeat 2, Conc. 0.0024 μM): 282.7 | mean (FP signal, FigS5) (Repeat 2, Conc. 0.0049 μM): 277.5 | mean (FP signal, FigS5) (Repeat 2, Conc. 0.0098 μM): 267 | mean (FP signal, FigS5) (Repeat 2, Conc. 0.0195 μM): 244.3 | mean (FP signal, FigS5) (Repeat 2, Conc. 0.0391 μM): 199 | mean (FP signal, FigS5) (Repeat 2, Conc. 0.0781 μM): 150.3 | mean (FP signal, FigS5) (Repeat 2, Conc. 0.1563 μM): 108.7 | mean (FP signal, FigS5) (Repeat 2, Conc. 0.3125 μM): 81.7 | mean (FP signal, FigS5) (Repeat 2, Conc. 0.625 μM): 67.7 | mean (FP signal, FigS5) (Repeat 2, Conc. 1.25 μM): 60 | mean (FP signal, FigS5) (Repeat 2, Conc. 2.5 μM): 58 | mean (FP signal, FigS5) (Repeat 2, Conc. 5 μM): 57 | mean (FP signal, FigS5) (Repeat 2, Conc. 10 μM): 55 | mean (FP signal, FigS5) (Repeat 2, Conc. 20 μM): 56 | mean (FP signal, FigS5) (Repeat 3, Conc. 0.0024 μM): 286 | mean (FP signal, FigS5) (Repeat 3, Conc. 0.0049 μM): 286.5 | mean (FP signal, FigS5) (Repeat 3, Conc. 0.0098 μM): 266.5 | mean (FP signal, FigS5) (Repeat 3, Conc. 0.0195 μM): 234 | mean (FP signal, FigS5) (Repeat 3, Conc. 0.0391 μM): 193.7 | mean (FP signal, FigS5) (Repeat 3, Conc. 0.0781 μM): 145.7 | mean (FP signal, FigS5) (Repeat 3, Conc. 0.1563 μM): 111.7 | mean (FP signal, FigS5) (Repeat 3, Conc. 0.3125 μM): 84.3 | mean (FP signal, FigS5) (Repeat 3, Conc. 0.625 μM): 66.3 | mean (FP signal, FigS5) (Repeat 3, Conc. 1.25 μM): 58.7 | mean (FP signal, FigS5) (Repeat 3, Conc. 2.5 μM): 54 | mean (FP signal, FigS5) (Repeat 3, Conc. 5 μM): 49.3 | mean (FP signal, FigS5) (Repeat 3, Conc. 10 μM): 48.7 | mean (FP signal, FigS5) (Repeat 3, Conc. 20 μM): 47.3

COc1ccc(C(=O)N[C@@H](C)C(=O)NCC(=O)N[C@@H](CCC(=O)O)C(=O)N[C@@H](CO)C(=O)N[C@@H](CC(C)C)C(=O)N[C@@H](Cc2ccc(O)cc2)C(=O)N[C@@H](Cc2ccc(C(C)(C)C)cc2)C(N)=O)cc1 [MAI-522] ({Benzoyl(4-OMe)}-AGESLY[Phe(4-tBu)]-NH2)
pIC50 (tracer 7, mean of three repeats, read-out: IC50 mean): 6.83 | pIC50 (tracer 7, read-out: IC50 Repeat 1): 6.78 | pIC50 (tracer 7, read-out: IC50 Repeat 2): 6.84 | pIC50 (tracer 7, read-out: IC50 Repeat 3): 6.88
